Entries after “also recorded” stand apart in the source; their conditions may differ.
Key:
[1] = NMR titration repeated with acetylated peptide; format: binding; conditions: same conditions as for NH2-Ala-Ala-Phe-amide; N-terminus acetylated
Procedure: The concept is based on the observation that 18-crown-6 ether derivatives can associate with protonated amines such as amino groups present at the N-termini of peptides or proteins (Yeh et al 2009 J Am Soc Mass Spectrom 20:385-393). To determine the exchange rate of the interaction between N-termini of polypeptides and 18-crown-6 ethers, an NMR study was performed. A model peptide (NH2-Ala-Ala-Phe-amide) was used in combination with the 18-crown-6 analogue triaza-trioxo-crown ether (TTC-ether; FIG. 3). The model peptide was designed with an N-terminal Ala to easily determine the shift of the N-terminal Ala methyl group upon binding to the TTC-ether. Solutions of the peptide were prepared in D2O/D-acetonitrile (3 ml/1 ml) with 10 mM D-acetic acid. A concentration of 100 μM peptide was maintained and mixed with varying concentrations of the TTC-ether. […]
A 2D-TOCSY (Total Correlation Spectroscopy) spectrum allows the identification of the position of the two methyl groups of both Ala residues around 1.25 ppm and 1.43 ppm. […] In order to retrieve information about the binding of the crown ether with the peptide, a titration was performed with different concentrations of the TTC-ether after which the shifts for the Ala methyl groups was measured at high resolution. Indeed, Ala-methyl shifts were observed when different TTC-ether/peptide ratios are measured (FIG. 4A). […]

[2] = system: peptide array [AA1][AA2]GGNNGG; assay: Crown ether binding on PEPperPRINT peptide array (fluorescence intensity); conditions: crown ether 0.1 μg/μl in 0.1% triethanolamine in 50% ACN
Procedure: To study the binding of crown ethers to different peptides, a peptide array is used (PEPperPRINT array), containing an array of 400 peptides comprising peptides with all amino acid combinations at the first and second N-terminal position ([AA1][AA2]GGNNGG; four replicates of each peptide). After applying a fluorescently labeled crown ether (Cy5.5-dibenzo-18-crown-6), the relative affinity for all peptide substrates is determined by the fluorescence intensity on each peptide spot. The crown ether was applied on the peptide array at a concentration of 0.1 μg/μl in 0.1% triethanolamine in 50% ACN. After binding the array was washed two times for 10 sec using the same buffer. Finally, the fluorescence intensity was measured using a LI-COR Odyssey Imaging system. […] The large hydrophobic side chains of the second amino acid likely interact with the hydrophobic regions of the crown ether (crown ether benzene rings and/or cy5.5 fluorophore).

For Acetyl-Ala-Ala-Phe-amide, the “interaction with TTC-ether (NMR shifts)” value [1] was “did not measure any noticeable interaction”.

For Cy5.5-dibenzo-18-crown-6, the “relative binding (fluorescence intensity), variable second amino acid” value ([2]; peptides with N-terminal glycine) was “strongest on the peptides GFGGNNGG, GLGGNNGG, GYGGNNGG, GIGGNNGG, GKGGNNGG and GWGGNNGG” and the “relative binding (fluorescence intensity), variable N-terminal amino acid” value ([2]; peptides with leucine at the second position) was “strongest on N-terminal glycine; also recorded: weakest on N-terminal proline”.

— patent US20220214354A1, “MEANS AND METHODS FOR SINGLE MOLECULE PEPTIDE SEQUENCING” (VIB VZW, priority 2019, published 2022)
